{"source": "patent US11814652B2", "about": "“Pluripotent stem cell differentiation-promoting agent” (Oriental Yeast Co., Ltd., priority 2018, dated 2023)", "key": {"iPS cells 201B7 strain [1]": {"tested_on": "iPS cells 201B7 strain", "test": "Flow cytometry of Nestin/PAX6 after ectodermal differentiation-induction following undifferentiated culture with β-NMN (Example 7)", "format": "cell-based, human", "conditions": "β-NMN 0.25 or 1 mM before ectodermal differentiation-induction; 7th or 9th day; versus absence of β-NMN", "method": "The effects of culturing in the presence of β-NMN before induction of differentiation on the ectodermal differentiation-induction of iPS cells was examined. As the iPS cells, the 201B7 strain was used. The iPS cells were cultured in a culture dish in the same manner as in Example 5, and when the confluent reached 70 to 80%, the iPS cells were detached from the culture dish and collected. The collected iPS cells were seeded at 3×10^5 cells/well in a 24-well plate coated with Matrigel (manufactured by Corning Incorporated) according to the manufacturer's protocol. The cells in the 24-well plate were cultured for 1 day in a culture medium prepared by removing β-NMN from the culture medium when culturing in the culture dish and adjusting to have a final concentration of Rock inhibitor of 10 μM. From the 1st day after seeding, the medium was replaced every day with a culture medium for ectodermal differentiation-induction of “STEMdiff Trilineage Differentiation kit” (manufactured by STEMCELL Technologies). In the same manner as in Example 2, the cells sampled on the 7th or 9th day after seeding were stained with a fluorescently labeled anti-Nestin antibody and a fluorescently labeled anti-PAX6 antibody, and a flow cytometer was used to analyze the fluorescence intensity of the anti-Nestin antibody and the fluorescence intensity of the anti-PAX6 antibody in each sample. […]"}, "iPS cells 201B7 strain [2]": {"tested_on": "iPS cells 201B7 strain", "test": "Cell number in ectodermal differentiation-induction after undifferentiated culture with β-NMN (Example 7)", "format": "cell-based, human", "conditions": "β-NMN 0.25 or 1 mM in culture medium for iPS cells before ectodermal differentiation-induction; 7th or 9th day after seeding; versus no β-NMN", "method": "The effects of culturing in the presence of β-NMN before induction of differentiation on the ectodermal differentiation-induction of iPS cells was examined. As the iPS cells, the 201B7 strain was used. The iPS cells were cultured in a culture dish in the same manner as in Example 5, and when the confluent reached 70 to 80%, the iPS cells were detached from the culture dish and collected. The collected iPS cells were seeded at 3×10^5 cells/well in a 24-well plate coated with Matrigel (manufactured by Corning Incorporated) according to the manufacturer's protocol. The cells in the 24-well plate were cultured for 1 day in a culture medium prepared by removing β-NMN from the culture medium when culturing in the culture dish and adjusting to have a final concentration of Rock inhibitor of 10 μM. From the 1st day after seeding, the medium was replaced every day with a culture medium for ectodermal differentiation-induction of “STEMdiff Trilineage Differentiation kit” (manufactured by STEMCELL Technologies). The cells of the 7th or 9th day after seeding were sampled and the cell numbers were counted. The time-dependent change in cell number of each sample is shown in FIG. 12(A), and the cell number of each sample on the 9th day after seeding is shown in FIG. 12(B). […]"}, "iPS cells 201B7 strain [3]": {"tested_on": "iPS cells 201B7 strain", "test": "Cell number during ectodermal differentiation-induction in medium with β-NMN (Example 2)", "format": "cell-based, human", "conditions": "ectoderm differentiation-inducing medium containing β-NMN 0.1, 0.25 or 1 mM; 2nd, 4th, 7th day after seeding; versus medium not containing β-NMN", "method": "The effect of β-NMN on the ectodermal differentiation-induction of the iPS cells was examined. The 201B7 strain was used as the iPS cells. The iPS cells were seeded in a 12-well plate coated with Matrigel (manufactured by Corning Incorporated) according to the manufacturer's protocol at 8×10^5 cells/well. The cells in the 12-well plate were cultured in a culture medium prepared by adjusting an ectodermal differentiation-inducing culture medium of “STEMdiff Trilineage Differentiation kit” (manufactured by STEMCELL Technologies) to have a final concentration of β-NMN of 0, 0.1, 0.25, or 1 mM, and a final concentration of Rock inhibitor of 10 μM for 1 day. From the 1st day after seeding, the medium was replaced every day with a culture medium obtained by removing the Rock inhibitor from the culture medium at the time of seeding. Cells of the 2nd, 4th or 7th day after seeding were sampled and the cell numbers were counted. The time-dependent change in cell number of each sample is shown in FIG. 2(A), and the cell numbers of the 7th day after seeding are shown in FIG. 2(B). As a result, the number of cells cultured in the ectoderm differentiation-inducing culture medium containing β-NMN was larger than the number of cells cultured in the medium not containing β-NMN."}, "[4]": {"tested_on": "human iPS cell strain 201B7", "test": "RT-PCR of marker expression in iPS cells cultured in E6 differentiation-inducing medium with β-NMN (Example 1)", "format": "cell-based", "conditions": "3rd and 7th day after seeding, β-NMN 0.25 or 1 mM in E6 medium, compared to cells cultured in the absence of β-NMN", "method": "The effect of β-NMN on the differentiation of three germ layers of the iPS cells was examined. As the iPS cells, the human iPS cell strain 201B7 was used. A U-bottom shape 96-well plate “Nunclon Sphera 96 U-well plate” (manufactured by Thermo Fisher Scientific) was seeded with iPS cells at 10,000 cells/well, and cultured in an E6 culture medium (manufactured by Gibco) as a differentiation-inducing culture medium adjusted to have a final concentration of β-NMN of 0, 0.25 or 1 mM, and a final concentration of Rock inhibitor of 10 μM for 1 day. The Rock inhibitor was added to suppress Rho-dependent apoptosis. On the 1st and 5th days after seeding, the culture medium was replaced with a culture medium obtained by removing the Rock inhibitor from the culture medium at the time of seeding. Cells on the 3rd and 7th days after seeding were sampled and subjected to RT-PCR to investigate the expression levels of undifferentiated markers (Nanog, Sox2, Oct3/4, Lin28a, Klf4), endoderm markers (Sox17, AFP), mesoderm markers (MSX1, Brachyury) and ectodermal markers (PAX6). […] The expression level of each marker was evaluated by PCR using the obtained cDNA. […]"}}, "data": [{"smiles": "NC(=O)c1ccc[n+]([C@@H]2O[C@H](COP(=O)([O-])O)[C@@H](O)[C@H]2O)c1", "note": "[β-NMN, β-nicotinamide mononucleotide]", "values": [{"measurement": "ratio of Nestin-positive PAX6-positive cells", "setting": "iPS cells 201B7 strain [1]", "result": "no clear difference"}, {"measurement": "number of the cells", "setting": "iPS cells 201B7 strain [2]", "result": "larger"}, {"measurement": "number of cells", "setting": "iPS cells 201B7 strain [3]", "result": "larger"}, {"measurement": "expression level of each undifferentiated marker (Nanog, Sox2, Oct3/4, Lin28a, Klf4)", "setting": "[4]", "result": "decreased"}, {"measurement": "expression level of the differentiated marker (Sox17, AFP, MSX1, Brachyury, PAX6)", "setting": "[4]", "result": "increased"}]}]}
